Assay results published in patent publication US6103707A, “9-(2-deoxy-2-fluoro-4-thio-beta-D-arabinofuranosyl)purine derivatives” (Yamasa Corporation, priority 1996, dated 2000).
≈ marks a conversion by molar mass, not a printed value. Read-outs that look alike come from different tables or passages of the source.

Experiments:
[1] = system: HSV-1; test: Anti-HSV-1 activity (plaque-formation inhibition in human embryonic lung fibroblasts); assay type: cell-based, herpes simplex virus 1 (HSV-1), VR-3 strain; conditions: Human alphaherpesvirus 1, Fibroblast, read-out: Antiviral Activity (ED50) HSV-1
Experimental: (§1) (1) Anti-HSV-1 Activity and Anti-HSV-2 Activity
(§2) 1. Fibroblasts derived from human embryonic lung tissue are subcultured in an Eagle's MEM supplemented with 10% of pseudo fetal calf serum (Mitsubishi Chemical Corp.), by passing at 1: (2-4) split every 4 or 5 days.
(§3) 2. A cell suspension obtained from the parent cells by passing at 1:2 split is seeded on a 12-well multiplate at a rate of 2 ml/well, and incubated in a CO2 -incubator at 37° C. for 4 days.
(§4) 3. The culture medium is discarded; a Hanks' MEM (250 microlitters) containing 50 to 150 PFU of the VR-3 strain of HSV-1 or the MS strain of HSV-2 is inoculated, thereby allowing the cells to adsorb the virus at 37° C. for 30 minutes; and then the virus liquid is discarded.
(§5) 4. A serum (2.5%)-added Eagle's MEM containing a test agent and 0.8% of methyl cellulose is added; and the resultant is incubated in a CO2 -incubator at 37° C. for 2 to 3 days. In general, the test agent is diluted serially by 1/2 log 10.
(§6) 5. The culture medium is discarded, and the resultant is dyed with a 0.5% solution of crystal violet; the number of plaques in each well is counted under a stereoscopic light microscope; and the rate of plaque-formation inhibition is obtained from the equation below.
(§7) 6. The rates of plaque-formation inhibition are plotted against the concentrations (in logarithm) of the test agent, and, from this dose--plaque-formation inhibition curve, 50% inhibitory concentration (ED50) of the test agent is obtained. [formula] (2) Anti-Varicella Zoster Virus (VZV) Activity

[2] = system: HSV-2; test: Anti-HSV-2 activity (plaque-formation inhibition in human embryonic lung fibroblasts); assay type: cell-based, herpes simplex virus 2 (HSV-2), MS strain; conditions: Human alphaherpesvirus 2, Fibroblast, read-out: Antiviral Activity (ED50) HSV-2
Experimental: as §1, §2, §3, §4, §5, §6, §7

[3] = system: VZV; test: microbe, parasite or virus in culture; assay type: cell-based, varicella-zoster virus (VZV), Oka strain; conditions: Human alphaherpesvirus 3, Fibroblast, read-out: Antiviral Activity (ED50) VZV
Text: as §7, §2, §3
3. The culture medium is discarded; and 750 microlitters of a serum (5%)-added Eagle's MEM containing 50 to 100 PFU of the Oka strain of VZV is inoculated, thereby allowing the cells to adsorb the virus at 37° C. for 1 hour.
4. The same amount of an MEM containing a test agent is added without discarding the virus liquid, and the resultant is incubated in a CO2 -incubator at 37° C. In general, the test agent is diluted serially by 1/2 log 10.
(§8) 5. After 4-5 day incubation, the culture medium is discarded, and the resultant is dyed with a 0.5% solution of crystal violet; the number of plaques in each well is counted under a stereoscopic light microscope; and the rate of plaque-formation inhibition is obtained from the same equation as is used in the above (1).
6. The rates of plaque-formation inhibition are plotted against the concentrations (in logarithm) of the test agent, and, from this dose--plaque-formation inhibition curve, 50% inhibitory concentration (ED50) of the test agent is obtained.

[4] = system: HCMV; test: Anti-Human Cytomegalovirus (HCMV) activity (plaque-formation inhibition in human embryonic lung fibroblasts); assay type: cell-based; conditions: Human betaherpesvirus 5, AD169, Fibroblast, HCMV AD-169 strain, 4 days plus further 4 to 5 days, 50% plaque-formation inhibition, read-out: Antiviral Activity (ED50) HCMV
Experimental: (3) Anti-Human Cytomegalovirus (HCMV) Activity
as §2
2. A cell suspension obtained from the parent cells by passing at 1:2 split is seeded on a 24-well multiplate at a rate of 0.8 ml/well, and incubated in a CO2 -incubator at 37° C. for 4 days.
3. The culture medium is discarded; and 400 microlitters of a serum (5%)-added Eagle's MEM containing 50 to 100 PFU of the AD-169 strain of HCMV is inoculated, thereby allowing the cells to adsorb the virus at 37° C. for 1 hour.
4. The same amount of an MEM containing a test agent is added without discarding the virus liquid, and the resultant is incubated in a CO2 -incubator at 37° C. for 4 days. In general, the test agent is diluted serially by 1/2 log 10.
5. The culture medium is replaced with a serum (2.5%)-added Eagle's MEM containing the test agent with the same concentration and 0.8% of methyl cellulose, and incubation is continued for a further 4 to 5 days.
as §8, with “6. The” for “5. After 4-5 day incubation, the”, “May-Gruenwald's and Giemsa (×10) solutions;” for “a 0.5% solution of crystal violet;”
7. The rates of plaque-formation inhibition are plotted against the concentrations (in logarithm) of the test agent, and, from this dose--plaque-formation inhibition curve, 50% inhibitory concentration (ED50) of the test agent is obtained.

[5] = HSV-1 VR-3 strain, human embryonic lung fibroblasts, 2 to 3 days, 50% plaque-formation inhibition
[6] = HSV-2 MS strain, human embryonic lung fibroblasts, 2 to 3 days, 50% plaque-formation inhibition

Compound | EC50 [1] | EC50 [2] | EC50 [3] | EC50 [4] | EC50 [1, 5] | EC50 [2, 6]
Nc1ncnc2c1ncn2[C@@H]1O[C@H](CO)[C@@H](O)[C@@H]1O [Control Example 1, araA, reference compound] | 17.1 µg/mL (≈ 64 µM) | 6.6 µg/mL (≈ 24.7 µM) | 1.17 µg/mL (≈ 4.38 µM) | 6.5 µg/mL | – | –
Nc1nc2c(ncn2COCCO)c(=O)[nH]1 [Control Example 2, acyclovir, reference compound] | – | – | – | 6.9 µg/mL | 0.14 µg/mL (≈ 0.622 µM) | 0.23 µg/mL (≈ 1.02 µM)
Nc1nc(O)c2ncn(COC(CO)CO)c2n1 [Control Example 3, ganciclovir, reference compound] | – | – | 3.1 µg/mL (≈ 12.1 µM) | 0.21 µg/mL | 0.016 µg/mL (≈ 0.0627 µM) | 0.039 µg/mL (≈ 0.153 µM)
Nc1ncnc2c1ncn2[C@@H]1S[C@H](CO)[C@@H](O)[C@@H]1F [Synthesis Example 1, 9-(2-deoxy-2-fluoro-4-thio-beta-D-arabinofuranosyl)adenine] | – | – | 3.04 µg/mL (≈ 10.7 µM) | 1.41 µg/mL | 1.61 µg/mL (≈ 5.64 µM) | 3.07 µg/mL (≈ 10.8 µM)
Nc1nc(N)c2ncn([C@@H]3S[C@H](CO)[C@@H](O)[C@@H]3F)c2n1 [Synthesis Example 2, 9-(2-deoxy-2-fluoro-4-thio-beta-D-arabinofuranosyl)-2,6-diaminopurine] | – | – | 0.101 µg/mL (≈ 0.336 µM) | 0.066 µg/mL | 0.0057 µg/mL (≈ 0.019 µM) | 0.05 µg/mL (≈ 0.166 µM)
Nc1nc2c(ncn2[C@@H]2S[C@H](CO)[C@@H](O)[C@@H]2F)c(=O)[nH]1 [Synthesis Example 3, 9-(2-deoxy-2-fluoro-4-thio-beta-D-arabinofuranosyl)guanine] | – | – | 0.095 µg/mL (≈ 0.315 µM) | 0.078 µg/mL | 0.0091 µg/mL (≈ 0.0302 µM) | 0.063 µg/mL (≈ 0.209 µM)
